Assay results reported in ChEMBL document CHEMBL1201862, “PubChem BioAssay data set” (2004).
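Five compound concentrations were applied to cells in 96-well plates for 48 hours; endpoints were derived by simple linear interpolation of the resulting dose-response curve. Abbreviation: GI50, concentration required for 50% inhibition of growth.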 The source made the active and inactive calls. Cut-off read from the data, not from the text of the source: active = GI50 up to about 1.1 µM and inactive = higher.

Key:
Experiment in all cases: DTP human tumour cell line panel, 48 h
NCI/ADR-RES = system: NCI/ADR-RES
HCC 2998 = system: HCC 2998
NCI-H460 = system: NCI-H460
NCI-H23 = system: NCI-H23
MOLT-4 = system: MOLT-4
MCF7 = system: MCF7
OVCAR-8 = system: OVCAR-8
SK-MEL-2 = system: SK-MEL-2
SK-MEL-28 = system: SK-MEL-28
M14 = system: M14
HOP-62 = system: HOP-62
HCT-116 = system: HCT-116
OVCAR-4 = system: OVCAR-4
COLO 205 = system: COLO 205
SNB-75 = system: SNB-75
U-251 = system: U-251
LOX IMVI = system: LOX IMVI
MDA-N = system: MDA-N

Measured: GI50

O=C1OC(C(O)C(O)C(O)CO)C(O)C1O (stereo not given)
inactive: NCI/ADR-RES > 100 µM | HCC 2998 > 100 µM | NCI-H460 > 100 µM | NCI-H23 > 100 µM | MOLT-4 > 100 µM | MCF7 > 100 µM | OVCAR-8 > 100 µM | SK-MEL-2 > 100 µM | SK-MEL-28 > 100 µM | M14 > 100 µM | HOP-62 > 100 µM | HCT-116 > 100 µM | OVCAR-4 > 100 µM | COLO 205 > 100 µM | SNB-75 > 100 µM | U-251 > 100 µM | LOX IMVI > 100 µM

O=C(O)c1ccc([N+](=O)[O-])c(P(=O)(O)O)c1
inactive: NCI/ADR-RES > 100 µM | NCI-H460 > 100 µM | NCI-H23 > 100 µM | MOLT-4 > 100 µM | MCF7 > 100 µM | OVCAR-8 > 100 µM | SK-MEL-2 > 100 µM | SK-MEL-28 > 100 µM | M14 > 100 µM | HOP-62 > 100 µM | HCT-116 > 100 µM | OVCAR-4 > 100 µM | MDA-N > 100 µM | COLO 205 > 100 µM | U-251 > 100 µM | LOX IMVI > 100 µM

O=c1[nH]c(N/N=C\C(O)C(O)C(O)CO)nc2ccccc12 (stereo not given)
inactive: NCI/ADR-RES > 100 µM | NCI-H460 > 100 µM | NCI-H23 > 100 µM | MOLT-4 > 100 µM | MCF7 > 100 µM | OVCAR-8 > 100 µM | SK-MEL-2 > 100 µM | SK-MEL-28 > 100 µM | M14 > 100 µM | HOP-62 > 100 µM | HCT-116 > 100 µM | MDA-N > 100 µM | COLO 205 83.2 µM | SNB-75 > 100 µM | U-251 > 100 µM | LOX IMVI > 100 µM

COc1cc2c(cc1OC)-c1c(oc3cc(OC4OC(CO)C(O)C(O)C4O)c(OC)cc3c1=O)C(O)O2 (stereo not given)
inactive: NCI/ADR-RES > 100 µM | HCC 2998 > 100 µM | NCI-H460 > 100 µM | NCI-H23 > 100 µM | OVCAR-8 > 100 µM | SK-MEL-2 > 100 µM | SK-MEL-28 > 100 µM | M14 > 100 µM | HOP-62 > 100 µM | HCT-116 > 100 µM | OVCAR-4 > 100 µM | COLO 205 > 100 µM | SNB-75 > 100 µM | U-251 > 100 µM | LOX IMVI > 100 µM

O=C1/C(=C/c2cccs2)NC(=S)N1CN1CCCCC1
inactive: NCI/ADR-RES > 100 µM | NCI-H23 > 100 µM | MOLT-4 55.5 µM | MCF7 28.2 µM | OVCAR-8 41 µM | SK-MEL-2 > 100 µM | SK-MEL-28 > 100 µM | M14 61.7 µM | HOP-62 > 100 µM | HCT-116 33 µM | OVCAR-4 20.7 µM | MDA-N > 100 µM | COLO 205 17.4 µM | SNB-75 > 100 µM | U-251 85.9 µM | LOX IMVI 33 µM

C[C@]12CC[C@H](O)CC1=CC[C@@H]1C2CC[C@]2(C)c3nn(-c4ccc(F)cc4)nc3CC12 (stereo not given in full)
inactive: HCC 2998 24 µM | NCI-H460 23.4 µM | NCI-H23 63.4 µM | MOLT-4 96.4 µM | MCF7 > 100 µM | OVCAR-8 85.7 µM | SK-MEL-28 > 100 µM | M14 32.6 µM | HOP-62 80.7 µM | HCT-116 67.3 µM | OVCAR-4 16.6 µM | MDA-N 81.8 µM | COLO 205 46.5 µM | SNB-75 28.6 µM | U-251 95.5 µM

C=CCCCCCCCCC(=O)ON(Cc1ccc(O)c(OC)c1)C(=O)C(F)(F)F
inactive: NCI/ADR-RES > 100 µM | HCC 2998 > 100 µM | NCI-H460 > 100 µM | NCI-H23 > 100 µM | MOLT-4 31.3 µM | MCF7 > 100 µM | OVCAR-8 > 100 µM | SK-MEL-28 > 100 µM | M14 > 100 µM | HOP-62 > 100 µM | HCT-116 > 100 µM | OVCAR-4 > 100 µM | COLO 205 > 100 µM | SNB-75 > 100 µM | U-251 > 100 µM | LOX IMVI > 100 µM

COC(=O)C1(Cc2ccccc2)Cc2cc3c(cc2C1O)CCC3 (stereo not given)
inactive: NCI/ADR-RES 18.4 µM | HCC 2998 24.9 µM | NCI-H460 30.1 µM | NCI-H23 15 µM | MOLT-4 17.5 µM | OVCAR-8 25.6 µM | SK-MEL-28 16.1 µM | HOP-62 19.3 µM | HCT-116 17.9 µM | OVCAR-4 15 µM | MDA-N 17.5 µM | COLO 205 21.3 µM | SNB-75 34.8 µM | LOX IMVI 19.1 µM

Cc1cccc2c1C/C(=C\c1cccc(C)c1C(=O)O)C2=O
inactive: NCI/ADR-RES > 100 µM | HCC 2998 > 100 µM | NCI-H460 > 100 µM | NCI-H23 > 100 µM | MOLT-4 61.1 µM | MCF7 > 100 µM | OVCAR-8 > 100 µM | SK-MEL-2 > 100 µM | SK-MEL-28 > 100 µM | M14 > 100 µM | HOP-62 > 100 µM | HCT-116 > 100 µM | OVCAR-4 > 100 µM | COLO 205 82.6 µM | SNB-75 > 100 µM | U-251 > 100 µM | LOX IMVI > 100 µM

c1ccc(Cc2cc(-c3ccccc3)[nH]n2)cc1
active: SNB-75 < 0.01 µM
inactive: NCI/ADR-RES 21.8 µM | NCI-H460 17 µM | MOLT-4 10.4 µM | MCF7 19.8 µM | OVCAR-8 13.5 µM | SK-MEL-2 16.5 µM | SK-MEL-28 11.6 µM | M14 28.5 µM | HOP-62 24.8 µM | HCT-116 25.9 µM | COLO 205 17.4 µM | U-251 13.2 µM | LOX IMVI 15.1 µM

COc1ccc(-c2nc3ncccn3c2-c2ccc([S+](C)[O-])cc2)cc1 (stereo not given)
inactive: NCI/ADR-RES > 100 µM | NCI-H460 > 100 µM | NCI-H23 > 100 µM | MOLT-4 > 100 µM | MCF7 28.3 µM | OVCAR-8 > 100 µM | SK-MEL-2 > 100 µM | SK-MEL-28 > 100 µM | M14 > 100 µM | HOP-62 > 100 µM | HCT-116 > 100 µM | OVCAR-4 > 100 µM | MDA-N 36.9 µM | COLO 205 > 100 µM | SNB-75 > 100 µM | U-251 > 100 µM | LOX IMVI > 100 µM

CC1=NN(c2ccccc2)C(=O)C1/N=N/c1ccc([As](=O)(O)O)c(O)c1 (stereo not given)
inactive: NCI/ADR-RES > 100 µM | NCI-H460 > 100 µM | NCI-H23 > 100 µM | MOLT-4 > 100 µM | MCF7 > 100 µM | OVCAR-8 > 100 µM | SK-MEL-2 > 100 µM | SK-MEL-28 > 100 µM | M14 > 100 µM | HOP-62 > 100 µM | HCT-116 > 100 µM | OVCAR-4 > 100 µM | MDA-N > 100 µM | COLO 205 > 100 µM | SNB-75 > 100 µM | U-251 > 100 µM | LOX IMVI > 100 µM

Cc1ccc(-c2cc(O)c3nc4ccccc4n3c2)cc1
inactive: NCI/ADR-RES > 100 µM | NCI-H460 60.8 µM | NCI-H23 > 100 µM | MOLT-4 > 100 µM | MCF7 > 100 µM | OVCAR-8 54.3 µM | SK-MEL-28 > 100 µM | M14 > 100 µM | HOP-62 > 100 µM | HCT-116 > 100 µM | OVCAR-4 > 100 µM | MDA-N > 100 µM | COLO 205 > 100 µM | SNB-75 > 100 µM | U-251 > 100 µM | LOX IMVI 75 µM

CC(=O)/C=C/C=C(\C)CC/C=C(\C)CC(C)C
inactive: HCC 2998 18.4 µM | NCI-H460 29.9 µM | NCI-H23 23.6 µM | MOLT-4 18.1 µM | MCF7 22.8 µM | OVCAR-8 23.7 µM | SK-MEL-2 20 µM | SK-MEL-28 33.9 µM | M14 52.2 µM | HOP-62 41.3 µM | HCT-116 21.8 µM | OVCAR-4 42.1 µM | MDA-N 30.2 µM | COLO 205 20.2 µM | SNB-75 35.2 µM | U-251 25.4 µM | LOX IMVI 18.3 µM

O=C(c1ccc(/N=C/c2ccccc2O)cc1)c1ccc(/N=C/c2ccccc2O)cc1
inactive: NCI/ADR-RES > 100 µM | HCC 2998 > 100 µM | NCI-H460 > 100 µM | NCI-H23 > 100 µM | MOLT-4 > 100 µM | MCF7 > 100 µM | SK-MEL-2 > 100 µM | SK-MEL-28 > 100 µM | M14 > 100 µM | HOP-62 > 100 µM | HCT-116 > 100 µM | OVCAR-4 > 100 µM | COLO 205 30.1 µM | SNB-75 > 100 µM | U-251 > 100 µM | LOX IMVI > 100 µM

CC(=O)OCC12C(OC(C)=O)C(=O)C3C(OC(C)=O)C14OC3(C)COC(=O)c1cccnc1C(C)C(C)C(=O)OC(C(OC(C)=O)C2OC(C)=O)C4(C)O (stereo not given)
inactive: HCC 2998 > 100 µM | NCI-H460 > 100 µM | NCI-H23 > 100 µM | MOLT-4 52.2 µM | MCF7 > 100 µM | OVCAR-8 > 100 µM | SK-MEL-2 > 100 µM | SK-MEL-28 > 100 µM | M14 > 100 µM | HOP-62 > 100 µM | HCT-116 > 100 µM | OVCAR-4 > 100 µM | MDA-N > 100 µM | COLO 205 > 100 µM | SNB-75 > 100 µM | U-251 > 100 µM | LOX IMVI > 100 µM

COC(=O)C1=C2SCc3ccc(cc3)CSC3=C(C(=O)OC)SC(=C(S2)S1)S3
inactive: HCC 2998 > 100 µM | NCI-H460 > 100 µM | MOLT-4 > 100 µM | MCF7 > 100 µM | SK-MEL-2 > 100 µM | SK-MEL-28 > 100 µM | M14 > 100 µM | HOP-62 > 100 µM | HCT-116 > 100 µM | OVCAR-4 64.6 µM | MDA-N 74.6 µM | COLO 205 > 100 µM | SNB-75 > 100 µM | U-251 > 100 µM
